Tests used:
Test in all cases: Test E pre-/postemergence greenhouse test, plant response rating 0-100
Assay type in all cases: in vivo
[1] = tested on: hairy beggarticks (Bidens pilosa); details: scale 0 to 100; for Plant response rating, Beggarticks: Postemergence; for Beggarticks plant response rating: Preemergence
Summary of the method: (§1)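 Rated visually against controls 14-21 days after treatment on a 0-100 scale (100 = complete control). Pre- and postemergence sprays used a non-phytotoxic solvent mixture with surfactant. Preemergence seeds were in silt loam; postemergence plants were in peat-based medium at the 1- to 4-leaf stage (2-18 cm).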

[2] = tested on: waterhemp (common waterhemp, Amaranthus rudis); details: scale 0 to 100; for Plant response rating, Waterhemp: Postemergence; for Waterhemp plant response rating: Preemergence
Summary of the method: as §1

[3] = tested on: corn (Zea mays); details: scale 0 to 100; for Plant response rating, Corn: Postemergence; for Corn plant response rating: Preemergence
Summary of the method: as §1

[4] = tested on: barnyardgrass (Echinochloa crus-galli); details: scale 0 to 100; for Plant response rating, Barnyardgrass: Postemergence; for Barnyardgrass plant response rating: Preemergence
Summary of the method: as §1

[5] = tested on: sandbur (southern sandbur, Cenchrus echinatus); details: scale 0 to 100; for Plant response rating, Sandbur: Postemergence; for Sandbur plant response rating: Preemergence
Summary of the method: as §1

[6] = tested on: wild poinsettia (Euphorbia heterophylla); details: scale 0 to 100; for Plant response rating, Poinsettia, Wild: Postemergence; for Poinsettia, Wild plant response rating: Preemergence
Summary of the method: as §1

[7] = tested on: Brazilian crabgrass (Digitaria horizontalis); details: Postemergence, scale 0 to 100
Summary of the method: as §1

[8] = tested on: palmer pigweed (Amaranthus palmeri); details: scale 0 to 100; for Plant response rating, Pigweed, Palmer: Postemergence; for Pigweed, Palmer plant response rating: Preemergence
Summary of the method: as §1

[9] = tested on: arrowleaf sida (Sida rhombifolia); details: for Plant response rating, Arrowleaf Sida: Postemergence; for Arrowleaf Sida plant response rating: Preemergence
Summary of the method: as §1

[10] = tested on: fall panicum (Panicum dichotomiflorum); details: scale 0 to 100; for Plant response rating, Panicum, Fall: Postemergence; for Panicum, Fall plant response rating: Preemergence
Summary of the method: as §1

[11] = tested on: soybean (Glycine max); details: scale 0 to 100; for Plant response rating, Soybean: Postemergence; for Soybean plant response rating: Preemergence
Summary of the method: as §1

O=C(c1ccccc1)c1cn(S(=O)(=O)CCl)nc1-c1cc(Cl)cc(Cl)c1 [Compound 1]
95: Plant response rating, Beggarticks ([1]; 62 g ai/ha) | Plant response rating, Arrowleaf Sida ([9]; 125 g ai/ha, scale 0 to 100) | Plant response rating, Arrowleaf Sida ([9]; 250 g ai/ha, scale 0 to 100)
98: Plant response rating, Beggarticks ([1]; 125 g ai/ha) | Plant response rating, Beggarticks ([1]; 250 g ai/ha) | Plant response rating, Beggarticks ([1]; 500 g ai/ha) | Plant response rating, Waterhemp ([2]; 125 g ai/ha) | Plant response rating, Waterhemp ([2]; 250 g ai/ha) | Plant response rating, Pigweed, Palmer ([8]; 500 g ai/ha) | Plant response rating, Arrowleaf Sida ([9]; 500 g ai/ha, scale 0 to 100 (0 no effect, 100 complete control))
75: Plant response rating, Pigweed, Palmer ([8]; 125 g ai/ha) | Arrowleaf Sida plant response rating ([9]; 500 g ai/ha, scale 0 to 100)
90: Plant response rating, Waterhemp ([2]; 62 g ai/ha) | Plant response rating, Arrowleaf Sida ([9]; 62 g ai/ha, scale 0 to 100)
100: Plant response rating, Waterhemp ([2]; 500 g ai/ha) | Waterhemp plant response rating ([2]; 500 g ai/ha) | Pigweed, Palmer plant response rating ([8]; 500 g ai/ha)
65: Plant response rating, Waterhemp ([2]; 31 g ai/ha)
30: Plant response rating, Beggarticks ([1]; 31 g ai/ha)
35: Beggarticks plant response rating ([1]; 250 g ai/ha) | Beggarticks plant response rating ([1]; 500 g ai/ha)
25: Plant response rating, Pigweed, Palmer ([8]; 62 g ai/ha) | Pigweed, Palmer plant response rating ([8]; 125 g ai/ha) | Arrowleaf Sida plant response rating ([9]; 62 g ai/ha, scale 0 to 100) | Arrowleaf Sida plant response rating ([9]; 125 g ai/ha, scale 0 to 100)
70: Plant response rating, Pigweed, Palmer ([8]; 250 g ai/ha)
50: Plant response rating, Pigweed, Palmer ([8]; 31 g ai/ha)
0: Beggarticks plant response rating ([1]; 31 g ai/ha) | Beggarticks plant response rating ([1]; 62 g ai/ha) | Beggarticks plant response rating ([1]; 125 g ai/ha) | Waterhemp plant response rating ([2]; 31 g ai/ha) | Plant response rating, Corn ([3]; 31 g ai/ha) | Plant response rating, Corn ([3]; 62 g ai/ha) | Plant response rating, Corn ([3]; 125 g ai/ha) | Plant response rating, Corn ([3]; 250 g ai/ha) | Plant response rating, Corn ([3]; 500 g ai/ha) | Corn plant response rating ([3]; 31 g ai/ha) | Corn plant response rating ([3]; 62 g ai/ha) | Corn plant response rating ([3]; 125 g ai/ha) | Corn plant response rating ([3]; 250 g ai/ha) | Corn plant response rating ([3]; 500 g ai/ha) | Plant response rating, Barnyardgrass ([4]; 31 g ai/ha) | Plant response rating, Barnyardgrass ([4]; 62 g ai/ha) | Plant response rating, Barnyardgrass ([4]; 125 g ai/ha) | Plant response rating, Barnyardgrass ([4]; 250 g ai/ha) | Plant response rating, Barnyardgrass ([4]; 500 g ai/ha) | Barnyardgrass plant response rating ([4]; 62 g ai/ha) | Barnyardgrass plant response rating ([4]; 125 g ai/ha) | Barnyardgrass plant response rating ([4]; 250 g ai/ha) | Barnyardgrass plant response rating ([4]; 500 g ai/ha) | Plant response rating, Sandbur ([5]; 31 g ai/ha) | Plant response rating, Sandbur ([5]; 62 g ai/ha) | Plant response rating, Sandbur ([5]; 125 g ai/ha) | Plant response rating, Sandbur ([5]; 250 g ai/ha) | Plant response rating, Sandbur ([5]; 500 g ai/ha) | Sandbur plant response rating ([5]; 31 g ai/ha) | Sandbur plant response rating ([5]; 62 g ai/ha) | Sandbur plant response rating ([5]; 125 g ai/ha) | Plant response rating, Poinsettia, Wild ([6]; 31 g ai/ha) | Plant response rating, Poinsettia, Wild ([6]; 62 g ai/ha) | Plant response rating, Poinsettia, Wild ([6]; 125 g ai/ha) | Plant response rating, Poinsettia, Wild ([6]; 250 g ai/ha) | Plant response rating, Poinsettia, Wild ([6]; 500 g ai/ha) | Poinsettia, Wild plant response rating ([6]; 31 g ai/ha) | Poinsettia, Wild plant response rating ([6]; 62 g ai/ha) | Poinsettia, Wild plant response rating ([6]; 125 g ai/ha) | Poinsettia, Wild plant response rating ([6]; 500 g ai/ha) | Plant response rating, Crabgrass, Brazil ([7]; 31 g ai/ha) | Plant response rating, Crabgrass, Brazil ([7]; 62 g ai/ha) | Plant response rating, Crabgrass, Brazil ([7]; 125 g ai/ha) | Plant response rating, Crabgrass, Brazil ([7]; 250 g ai/ha) | Plant response rating, Crabgrass, Brazil ([7]; 500 g ai/ha) | Pigweed, Palmer plant response rating ([8]; 31 g ai/ha) | Plant response rating, Panicum, Fall ([10]; 31 g ai/ha) | Plant response rating, Panicum, Fall ([10]; 62 g ai/ha) | Plant response rating, Panicum, Fall ([10]; 125 g ai/ha) | Plant response rating, Panicum, Fall ([10]; 250 g ai/ha) | Plant response rating, Panicum, Fall ([10]; 500 g ai/ha) | Panicum, Fall plant response rating ([10]; 31 g ai/ha) | Panicum, Fall plant response rating ([10]; 62 g ai/ha) | Panicum, Fall plant response rating ([10]; 125 g ai/ha) | Panicum, Fall plant response rating ([10]; 250 g ai/ha) | Panicum, Fall plant response rating ([10]; 500 g ai/ha) | Plant response rating, Soybean ([11]; 31 g ai/ha) | Plant response rating, Soybean ([11]; 62 g ai/ha) | Plant response rating, Soybean ([11]; 125 g ai/ha) | Plant response rating, Soybean ([11]; 250 g ai/ha) | Plant response rating, Soybean ([11]; 500 g ai/ha) | Soybean plant response rating ([11]; 31 g ai/ha) | Soybean plant response rating ([11]; 62 g ai/ha) | Soybean plant response rating ([11]; 125 g ai/ha) | Soybean plant response rating ([11]; 250 g ai/ha) | Soybean plant response rating ([11]; 500 g ai/ha)
80: Plant response rating, Arrowleaf Sida ([9]; 31 g ai/ha, scale 0 to 100)
20: Waterhemp plant response rating ([2]; 62 g ai/ha) | Sandbur plant response rating ([5]; 250 g ai/ha) | Sandbur plant response rating ([5]; 500 g ai/ha) | Pigweed, Palmer plant response rating ([8]; 62 g ai/ha) | Pigweed, Palmer plant response rating ([8]; 250 g ai/ha) | Arrowleaf Sida plant response rating ([9]; 31 g ai/ha, scale 0 to 100) | Arrowleaf Sida plant response rating ([9]; 250 g ai/ha, scale 0 to 100)
60: Waterhemp plant response rating ([2]; 125 g ai/ha) | Waterhemp plant response rating ([2]; 250 g ai/ha)
